Assay results taken from patent US10035806B2, “Derivatized corroles and metallocorroles and their use as imaging and therapeutic agents” (CALIFORNIA INSTITUTE OF TECHNOLOGY, priority 2015, dated 2018).

Assays:
Assay in all cases: NCI60 anticancer drug screen
Assay type in all cases: cell-based, human
CCRF-CEM = CCRF-CEM (Leukemia), 10 μM, 48 h
From the text: (§1) The aminocaproate-substituted corrole Complex 3 was submitted to NCI for cytotoxic screening at a single high dose (10−5M) in a panel of 60 human tumor cell lines (NCI60). Details of the cytotoxicity assessment in the NCI anticancer drug screen have been described previously, in Monks A, et al. (1991) Feasibility of a high-flux anticancer drug screen using a diverse panel of cultured human tumor cell lines. J Natl Cancer Inst 83(11):757-766, this reference being incorporated by reference for these teachings.
(§2) In view of the promising results observed for carboxylated corroles, Complex 3 was selected for expanded cell screening to uncover additional susceptible cancer cell lines. The cytotoxic activity of Complex 3 was tested at a dose of 10^−5 M against 60 human cancer cell lines representing nine distinct tumor types in the anticancer screening program of the National Cancer Institute (NCI). The in vitro parameters for cytotoxicity, growth percent, and lethality were obtained for Complex 3 and reported as a mean graph of the percent growth of treated cells (FIG. 7). Bars in the mean graph depict the deviation of individual tumor cell lines from the overall mean value for all cells tested. Bars that project to the right of the mean represent cell lines that are more sensitive to Complex 3, whereas cell lines less sensitive to the compound display bars that project to the left.
(§3) The numerical values associated with this assay represent growth relative to the no-drug control and the numbers of cells at time 0 (FIG. 7). This allows detection of both growth inhibition (values between 0 and 100) and lethality (values less than 0). For example, a value of 100 signifies no growth inhibition, 40 means 60% growth inhibition, 0 means no net growth over the course of the experiment, −40 means 40% lethality, and −100 indicates all cells are dead. […] Growth inhibitions reflect cytostatic activity of the compound as previously shown for Complex 2. In contrast, cell lethality is only evident in melanoma cells, specifically the LOX IMVI and SK-MEL-28 cell lines.

COLO 205 = COLO 205 (Colon cancer), 10 μM, 48 h
From the text: as §1, §2, §3

DU-145 = DU-145 (Prostate Cancer), 10 μM, 48 h
From the text: as §1, §2, §3

HCT-116 = HCT-116 (Colon cancer), 10 μM, 48 h
From the text: as §1, §2, §3

HCT-15 = HCT-15 (Colon cancer), 10 μM, 48 h
From the text: as §1, §2, §3

HOP-62 = HOP-62 (Non-small-cell lung cancer), 10 μM, 48 h
From the text: as §1, §2, §3

K-562 = K-562 (Leukemia), 10 μM, 48 h
From the text: as §1, §2, §3

KM12 = KM12 (Colon cancer), 10 μM, 48 h
From the text: as §1, §2, §3

MCF7 = MCF7 (Breast Cancer), 10 μM, 48 h
From the text: as §1, §2, §3

MOLT-4 = MOLT-4 (Leukemia), 10 μM, 48 h
From the text: as §1, §2, §3

NCI-H23 = NCI-H23 (Non-small-cell lung cancer), 10 μM, 48 h
From the text: as §1, §2, §3

NCI-H322M = NCI-H322M (Non-small-cell lung cancer), 10 μM, 48 h
From the text: as §1, §2, §3

NCI-H460 = NCI-H460 (Non-small-cell lung cancer), 10 μM, 48 h
From the text: as §1, §2, §3

NCI-H522 = NCI-H522 (Non-small-cell lung cancer), 10 μM, 48 h
From the text: as §1, §2, §3

NCl/ADR-RES = NCl/ADR-RES (Ovarian Cancer), 10 μM, 48 h
From the text: as §1, §2, §3

OVCAR-5 = OVCAR-5 (Ovarian Cancer), 10 μM, 48 h
From the text: as §1, §2, §3

PC-3 = PC-3 (Prostate Cancer), 10 μM, 48 h
From the text: as §1, §2, §3

RXF 398 = RXF 398 (Renal Cancer), 10 μM, 48 h
From the text: as §1, §2, §3

SF-268 = SF-268 (CNS Cancer), 10 μM, 48 h
From the text: as §1, §2, §3

SF-539 = SF-539 (CNS Cancer), 10 μM, 48 h
From the text: as §1, §2, §3

SK-OV-3 = SK-OV-3 (Ovarian Cancer), 10 μM, 48 h
From the text: as §1, §2, §3

SN12C = SN12C (Renal Cancer), 10 μM, 48 h
From the text: as §1, §2, §3

SNB-75 = SNB-75 (CNS Cancer), 10 μM, 48 h
From the text: as §1, §2, §3

SW-620 = SW-620 (Colon cancer), 10 μM, 48 h
From the text: as §1, §2, §3

T-47D = T-47D (Breast Cancer), 10 μM, 48 h
From the text: as §1, §2, §3

TK-10 = TK-10 (Renal Cancer), 10 μM, 48 h
From the text: as §1, §2, §3

UACC-257 = UACC-257 (Melanoma), 10 μM, 48 h
From the text: as §1, §2, §3

UACC-62 = UACC-62 (Melanoma), 10 μM, 48 h
From the text: as §1, §2, §3

SMILES: O=C(O)CCCCCNc1c(F)c(F)c(C2=C3C=CC4=[N+]3[Ga-]35[n]6c2ccc6C(c2c(F)c(F)c(F)c(F)c2F)=c2ccc([n]23)=C(c2c(F)c(F)c(F)c(F)c2F)c2ccc4[n]25)c(F)c1F (stereo not shown) [Complex 3]
- Growth inhibition, % (CCRF-CEM): 91.1%
- Growth inhibition, % (COLO 205): 51.7%
- Growth inhibition, % (DU-145): 64.7%
- Growth inhibition, % (HCT-116): 75.5%
- Growth inhibition, % (HCT-15): 57.0%
- Growth inhibition, % (HOP-62): 44.9%
- Growth inhibition, % (K-562): 72.9%
- Growth inhibition, % (KM12): 80.6%
- Growth inhibition, % (MCF7): 63.1%
- Growth inhibition, % (MOLT-4): 86.0%
- Growth inhibition, % (NCI-H23): 64.5%
- Growth inhibition, % (NCI-H322M): 32.9%
- Growth inhibition, % (NCI-H460): 94.2%
- Growth inhibition, % (NCI-H522): 44.6%
- Growth inhibition, % (NCl/ADR-RES): 52.7%
- Growth inhibition, % (OVCAR-5): 53.1%
- Growth inhibition, % (PC-3): 71.9%
- Growth inhibition, % (RXF 398): 96.7%
- Growth inhibition, % (SF-268): 65.8%
- Growth inhibition, % (SF-539): 85.3%
- Growth inhibition, % (SK-OV-3): 32.9%
- Growth inhibition, % (SN12C): 78.8%
- Growth inhibition, % (SNB-75): 30.7%
- Growth inhibition, % (SW-620): 75.9%
- Growth inhibition, % (T-47D): 45.9%
- Growth inhibition, % (TK-10): 47.3%
- Growth inhibition, % (UACC-257): 37.2%
- Growth inhibition, % (UACC-62): 91.6%
